The text below walks through data of ChEMBL document CHEMBL4339221, “Investigating the Anticancer Activity of Isatin/Dihydropyrazole Hybrids” (ACS Med Chem Lett, 2019).

Data set [1] can be described thus: Antiproliferative activity against human IGR-39 cells assessed as cell growth at 10 uM incubated for 72 hrs by MTT assay relative to untreated control. The settings on record: IGR-39, 72 h, read-out: Activity. Type of data set: functional. For orientation: Tetrazolium assays rely on reduction of a dye to a coloured formazan, in cell work by metabolically active cells.

The test system of data set [2] is NCI-H1299. The data set is described as follows: Antiproliferative activity against human NCI-H1299 cells assessed as cell growth at 10 uM incubated for 72 hrs by MTT assay relative to untreated control. Type of data set: functional. The settings on record: NCI-H1299, 72 h, read-out: Activity.
Data set [3] can be described thus: Antiproliferative activity against human NHFB cells assessed as cell growth at 10 uM incubated for 72 hrs by MTT assay relative to untreated control. Type of data set: cell-based. The conditions noted are these: read-out: Activity.
The test system of data set [4] is MCF7. The data set is described as follows: Antiproliferative activity against human MCF7 cells assessed as cell growth at 10 uM incubated for 72 hrs by MTT assay relative to untreated control. Type of data set: functional. The settings on record: MCF7, 72 h, read-out: Activity.
Data set [5] has as its system SK-OV-3. Kind of data set: Antiproliferative activity against human SKOV3 cells assessed as cell growth at 10 uM incubated for 72 hrs by MTT assay relative to untreated control. Type of data set: functional. The settings on record: SK-OV-3, 72 h, read-out: Activity.
The test system of data set [6] is U-87 MG. The data set is described as follows: Antiproliferative activity against human U87 cells assessed as cell growth at 10 uM incubated for 72 hrs by MTT assay relative to untreated control. Type of data set: functional, U-87MG ATCC. The settings on record: read-out: Activity.
In a further data set the test system is MDA-MB-231. The data set is described as follows: Antiproliferative activity against human MDA-MB-231 cells assessed as cell growth at 10 uM incubated for 72 hrs by MTT assay relative to untreated control. Type of data set: functional. The settings on record: MDA-MB-231, 72 h, read-out: Activity.
Data set [7] concerns A549. Kind of data set: Antiproliferative activity against human A549 cells assessed as cell growth at 10 uM incubated for 72 hrs by MTT assay relative to untreated control. Type of data set: functional. The settings on record: A549, 72 h, read-out: Activity.
Data set [8] has as its system BT-474. The data set is described as follows: Antiproliferative activity against human BT474 cells assessed as cell growth at 10 uM incubated for 72 hrs by MTT assay relative to untreated control. The conditions noted are these: BT-474, 72 h, read-out: Activity. Type of data set: functional.
The test system of data set [9] is BXPC-3. The data set is described as follows: Antiproliferative activity against human BxPC3 cells assessed as cell growth at 10 uM incubated for 72 hrs by MTT assay relative to untreated control. The settings on record: BXPC-3, 72 h, read-out: Activity. Type of data set: functional.
Data set [10] deals with A549. The data set is described as follows: Antiproliferative activity against human A549 cells assessed as reduction in cell growth incubated for 72 hrs by MTT assay. The conditions noted are these: A549, 72 h. Type of data set: functional, cell-based.
The nature of data set [11]: Antiproliferative activity against human NHFB cells assessed as reduction in cell growth incubated for 72 hrs by MTT assay. Type of data set: cell-based.
In data set [12] the test system is MCF7. The data set is described as follows: Antiproliferative activity against human MCF7 cells assessed as reduction in cell growth incubated for 72 hrs by MTT assay. Type of data set: functional, cell-based. The settings on record: MCF7, 72 h.
The subject of data set [13] is BT-474. The data set is described as follows: Antiproliferative activity against human BT474 cells assessed as reduction in cell growth incubated for 72 hrs by MTT assay. Type of data set: functional, cell-based. The conditions noted are these: BT-474, 72 h.
Data set [14] is described as follows: Antiproliferative activity against human IGR-39 cells assessed as reduction in cell growth incubated for 72 hrs by MTT assay. The settings on record: IGR-39, 72 h. Type of data set: functional, cell-based.
The subject of data set [15] is BXPC-3. The data set is described as follows: Antiproliferative activity against human BxPC3 cells assessed as reduction in cell growth incubated for 72 hrs by MTT assay. Type of data set: functional, cell-based. The conditions noted are these: BXPC-3, 72 h.
Data set [16] concerns NCI-H1299. Kind of data set: Antiproliferative activity against human NCI-H1299 cells assessed as reduction in cell growth incubated for 72 hrs by MTT assay. Type of data set: functional, cell-based. The settings on record: NCI-H1299, 72 h.
For data set [17], the system named is U-87 MG. Kind of data set: Antiproliferative activity against human U87 cells assessed as reduction in cell growth incubated for 72 hrs by MTT assay. Type of data set: functional, cell-based, U-87MG ATCC.
The subject of data set [18] is SK-OV-3. The data set is described as follows: Antiproliferative activity against human SKOV3 cells assessed as reduction in cell growth incubated for 72 hrs by MTT assay. Type of data set: functional, cell-based. The settings on record: SK-OV-3, 72 h.

Structures are written as SMILES.

Consider `COc1ccc(C2CC(c3cccs3)=NN2C2=NC(=O)/C(=C3/C(=O)Nc4ccc(OC)cc43)S2)cc1` (stereo unspecified), for which the growth at 10 µM amounted to 98.6% in data set [1]; 85.9% with NCI-H1299 [2]; 120% in the data set with MCF7 [4]; 49.5% with SK-OV-3 [5]; 44.9% in the data set on U-87 MG [6]; 99.3% with MDA-MB-231. Moreover, the growth at 10 µM in the data set with A549 [7] came to 62.5%; in the data set on BT-474 [8], 98.4%; in the data set with BXPC-3 [9], 67.6%. Also, the viability at 72 h, 10 µM in data set [3] stood at 64.4%.

`COc1ccc(C2CC(c3ccc4ccccc4c3)=NN2C2=NC(=O)/C(=C3/C(=O)Nc4c(F)cccc43)S2)cc1` (stereo unspecified): the growth at 10 µM amounted to 109% in [1]; 60.5% in the data set with NCI-H1299 [2]; 118% in the data set with MCF7 [4]; 67.7% with SK-OV-3 [5]; 86.2% with U-87 MG [6]; 87.3% in the data set on MDA-MB-231. The growth at 10 µM in the data set on A549 [7] is 86.5%; in the data set on BT-474 [8], 112%; in the data set on BXPC-3 [9], 73.1%. Besides, the viability at 72 h, 10 µM in [3] is 89.4%.

As usually defined, the EC50 is the concentration needed to bring the measured effect to its halfway point. For the compound `COc1ccc(C2CC(c3ccc4ccccc4c3)=NN2C2=NC(=O)/C(=C3/C(=O)Nc4ccc(OC)cc43)S2)cc1` (stereo unspecified), the growth at 10 µM in [1] stood at 1.2%; in the data set on NCI-H1299 [2] it was 9.85%; with MCF7 [4] it was 3.64%; in the data set with SK-OV-3 [5], 41.4%; with U-87 MG [6] it was 1.13%; in the data set with MDA-MB-231 it was 9.67%. Besides, the values for the growth at 10 µM in the data set with A549 [7], with BT-474 [8] and with BXPC-3 [9] were 3.93%, 49.1% and 5.13%, respectively. Besides, the EC50 in the data set with A549 [10] was 730 nM; in data set [11], 270 nM; in the data set with MCF7 [12], 270 nM; in the data set on BT-474 [13] it was 240 nM; in data set [14], 500 nM; in the data set with BXPC-3 [15], 100 nM. In addition, the 50% effective concentration (EC50) with NCI-H1299 [16] came out at 150 nM; in the data set with U-87 MG [17] it was 0.67 µM. In addition, in data set [3], the viability at 72 h, 10 µM amounted to 13.3%.

`CCN(CC)CCNC(=O)c1c(C)[nH]c(/C=C2\C(=O)Nc3ccc(F)cc32)c1C` [SUNITINIB]: the EC50 in data set [11] amounted to 300 nM; in the data set on MCF7 [12] it was 960 nM; with BT-474 [13] it was 900 nM; in the data set with BXPC-3 [15] it was 2500 nM; in the data set on SK-OV-3 [18], 1360 nM; in the data set on NCI-H1299 [16] it was 1540 nM.

As to `COc1ccc(C2CC(c3cccs3)=NN2C2=NC(=O)/C(=C3/C(=O)Nc4ccc(F)cc43)S2)cc1` (stereo unspecified), the growth at 10 µM worked out at 28.1% in data set [1]; 68.3% in the data set with NCI-H1299 [2]; 112% in the data set with MCF7 [4]; 94.1% in the data set with SK-OV-3 [5]; 14.4% in the data set on U-87 MG [6]; 81.5% in the data set with MDA-MB-231. Also, the growth at 10 µM came out at 63.6% in the data set with A549 [7], 102% in the data set on BT-474 [8] and 77.2% in the data set with BXPC-3 [9]. The viability at 72 h, 10 µM in data set [3] was 20%.

On to `COc1ccc(C2CC(c3ccc4ccccc4c3)=NN2C2=NC(=O)/C(=C3/C(=O)Nc4c(C)cc(C)cc43)S2)cc1` (stereo unspecified), for which the growth at 10 µM in data set [1] is 63.4%; with NCI-H1299 [2] it was 87.8%; in the data set on MCF7 [4], 120%; with SK-OV-3 [5], 26.6%; in the data set on U-87 MG [6], 64.2%; in the data set with MDA-MB-231, 73%. The figures for the growth at 10 µM in the data set on A549 [7], in the data set on BT-474 [8] and with BXPC-3 [9] were 43.8%, 62.2% and 44.9%, respectively. The viability at 72 h, 10 µM in data set [3] was determined as 55.6%.

In the case of `COc1ccc(C2CC(c3cccs3)=NN2C2=NC(=O)/C(=C3/C(=O)Nc4c(C)cc(C)cc43)S2)cc1` (stereo unspecified), the growth at 10 µM in data set [1] is 117%; in the data set with NCI-H1299 [2], 120%; with MCF7 [4] it was 114%; in the data set with SK-OV-3 [5] it was 79.9%; in the data set with U-87 MG [6] it was 126%; with MDA-MB-231 it was 111%. For the same compound, the growth at 10 µM is 104% in the data set on A549 [7], 103% with BT-474 [8] and 72.3% with BXPC-3 [9]. For the same compound, the viability at 72 h, 10 µM in data set [3] was 80.3%.

For `COc1ccc(C2CC(c3cccs3)=NN2C2=NC(=O)/C(=C3/C(=O)Nc4ccc(C)cc43)S2)cc1` (stereo unspecified), the growth at 10 µM worked out at 1.37% in data set [1]; 84% in the data set with NCI-H1299 [2]; 112% in the data set with MCF7 [4]; 38.4% in the data set on SK-OV-3 [5]; 12.1% in the data set on U-87 MG [6]; 76.9% in the data set with MDA-MB-231. For the same compound, the results for the growth at 10 µM in the data set with A549 [7], in the data set with BT-474 [8] and with BXPC-3 [9] were 22.7%, 95% and 62.4%, respectively. The viability at 72 h, 10 µM in [3] turned out to be 48.3%.

For the compound `COc1ccc(C2CC(c3ccc4ccccc4c3)=NN2C2=NC(=O)/C(=C3/C(=O)Nc4c(Br)cccc43)S2)cc1` (stereo unspecified), the growth at 10 µM came to 98.6% in data set [1]; 81% with NCI-H1299 [2]; 102% with MCF7 [4]; 89.9% in the data set on SK-OV-3 [5]; 96.7% in the data set on U-87 MG [6]; 68.2% in the data set on MDA-MB-231. Also, the growth at 10 µM in the data set with A549 [7] came out at 94.2%; with BT-474 [8], 88.2%; in the data set with BXPC-3 [9], 55.3%. Further, in [3], the viability at 72 h, 10 µM stood at 47.3%.

With `COc1ccc(C2CC(c3cccs3)=NN2C2=NC(=O)/C(=C3/C(=O)Nc4c(Br)cccc43)S2)cc1` (stereo unspecified), the growth at 10 µM in [1] amounted to 101%; with NCI-H1299 [2], 89.2%; with MCF7 [4], 126%; in the data set on SK-OV-3 [5] it was 88%; in the data set with U-87 MG [6] it was 57%; in the data set with MDA-MB-231 it was 73.9%. Besides, the growth at 10 µM with A549 [7] came to 86.1%; in the data set on BT-474 [8], 94.3%; in the data set on BXPC-3 [9] it was 53.7%. Further, the viability at 72 h, 10 µM in [3] worked out at 46.3%.

For the compound `COc1ccc(C2CC(c3cccs3)=NN2C2=NC(=O)/C(=C3/C(=O)Nc4ccc(Cl)cc43)S2)cc1` (stereo unspecified), the growth at 10 µM in data set [1] was determined as 0.9%; in the data set with NCI-H1299 [2], 117%; in the data set with MCF7 [4], 112%; in the data set on SK-OV-3 [5], 56.6%; in the data set with U-87 MG [6], 4.35%; in the data set on MDA-MB-231, 80.4%. The growth at 10 µM is 22.4% with A549 [7], 86.8% with BT-474 [8] and 59.6% with BXPC-3 [9]. The viability at 72 h, 10 µM in [3] was found to be 47.5%. In addition, the EC50 in data set [14] came to 2970 nM; in the data set with U-87 MG [17], 5.76 µM.
